This passage reports Efficacy, Ki and EC50 results from ChEMBL document CHEMBL1134160 (Bioorg Med Chem Lett, 2001).

Each structure is given as a SMILES string.

Experiment [1] addresses Neuronal acetylcholine receptor subunit alpha-7 (Mus musculus) (UniProt P49582). As to the kind of experiment: Functional activity is expressed as percent efficacy for alpha-7 nAChR.
In experiment [2] the target is T1, Acetylcholine receptor; alpha1/beta1/delta/gamma (Homo sapiens, UniProt P02708+P07510+P11230+Q07001). Nature of the experiment: In vitro Binding affinity towards alpha-1-beta-1-gamma-delta nAChR was determined. In kind it is protein-complex assay.
The target of experiment [3] is Neuronal acetylcholine receptor subunit alpha-7 (Mus musculus, UniProt P49582). Nature of the experiment: In vitro Binding affinity towards alpha-7 nAChR was determined.
Experiment [4] has as its target Neuronal acetylcholine receptor subunit alpha-7 (Homo sapiens, UniProt P36544). As to the kind of experiment: Effective concentration that causes inhibition of alpha-7 nAChR, was determined. Values are expressed as EC50 +/- SEM. In kind it is functional.
Experiment [5] has as its target Neuronal acetylcholine receptor; alpha4/beta2 (Homo sapiens, UniProt P17787+P43681). As to the kind of experiment: In vitro Binding affinity towards Nicotinic acetylcholine receptor alpha4-beta2 was determined. In kind it is protein-complex assay.
Experiment [6] concerns the target Serotonin 3 (5-HT3) receptor. Nature of the experiment: In vitro Binding affinity towards 5-hydroxytryptamine 3 receptor was determined. In kind it is protein-complex assay.
Experiment [7] addresses T1, Acetylcholine receptor; alpha1/beta1/delta/gamma. As to the kind of experiment: In vitro Binding affinity towards alpha-1-beta-1-gamma delta nAChR was determined.

T1 sequence (P02708 whole entry): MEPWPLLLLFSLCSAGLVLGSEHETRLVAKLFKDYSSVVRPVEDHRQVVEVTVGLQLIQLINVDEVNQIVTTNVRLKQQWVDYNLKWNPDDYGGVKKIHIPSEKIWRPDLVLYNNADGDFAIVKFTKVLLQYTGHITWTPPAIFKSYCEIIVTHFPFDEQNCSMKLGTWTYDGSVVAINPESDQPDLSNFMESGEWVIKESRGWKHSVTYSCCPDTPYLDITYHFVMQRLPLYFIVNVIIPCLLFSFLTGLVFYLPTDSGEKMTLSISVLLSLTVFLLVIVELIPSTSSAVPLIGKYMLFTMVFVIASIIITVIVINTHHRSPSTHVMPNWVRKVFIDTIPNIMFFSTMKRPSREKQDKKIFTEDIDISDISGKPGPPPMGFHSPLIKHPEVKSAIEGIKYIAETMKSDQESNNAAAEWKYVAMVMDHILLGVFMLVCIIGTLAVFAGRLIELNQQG
T1 sequence (P07510 whole entry): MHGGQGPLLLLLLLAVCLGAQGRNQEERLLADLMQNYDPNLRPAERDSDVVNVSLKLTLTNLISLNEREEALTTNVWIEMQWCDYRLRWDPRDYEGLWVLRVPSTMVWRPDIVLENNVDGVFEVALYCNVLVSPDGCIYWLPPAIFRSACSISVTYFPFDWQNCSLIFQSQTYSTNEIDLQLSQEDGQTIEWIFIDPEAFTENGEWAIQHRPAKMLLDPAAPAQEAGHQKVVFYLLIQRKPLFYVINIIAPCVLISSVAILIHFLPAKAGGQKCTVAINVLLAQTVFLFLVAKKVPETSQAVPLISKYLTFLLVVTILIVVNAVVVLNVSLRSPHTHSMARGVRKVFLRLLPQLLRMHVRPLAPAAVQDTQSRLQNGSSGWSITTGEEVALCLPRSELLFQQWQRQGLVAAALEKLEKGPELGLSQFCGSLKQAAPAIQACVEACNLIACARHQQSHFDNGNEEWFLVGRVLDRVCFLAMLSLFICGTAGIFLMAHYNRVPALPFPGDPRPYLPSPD
T1 sequence (P11230 whole entry): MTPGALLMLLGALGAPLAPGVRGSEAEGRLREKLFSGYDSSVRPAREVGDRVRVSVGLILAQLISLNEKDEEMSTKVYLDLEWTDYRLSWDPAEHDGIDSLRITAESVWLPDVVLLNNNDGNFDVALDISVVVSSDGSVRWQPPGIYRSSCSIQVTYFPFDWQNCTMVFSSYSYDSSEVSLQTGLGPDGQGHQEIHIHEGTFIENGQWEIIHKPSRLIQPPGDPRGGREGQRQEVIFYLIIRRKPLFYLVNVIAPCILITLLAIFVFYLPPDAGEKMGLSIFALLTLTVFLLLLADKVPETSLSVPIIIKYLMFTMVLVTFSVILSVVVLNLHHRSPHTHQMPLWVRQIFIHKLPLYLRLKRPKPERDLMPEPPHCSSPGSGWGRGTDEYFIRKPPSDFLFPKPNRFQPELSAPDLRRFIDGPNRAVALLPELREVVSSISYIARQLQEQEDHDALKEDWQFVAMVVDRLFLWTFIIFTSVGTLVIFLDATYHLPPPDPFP
T1 sequence (Q07001 whole entry): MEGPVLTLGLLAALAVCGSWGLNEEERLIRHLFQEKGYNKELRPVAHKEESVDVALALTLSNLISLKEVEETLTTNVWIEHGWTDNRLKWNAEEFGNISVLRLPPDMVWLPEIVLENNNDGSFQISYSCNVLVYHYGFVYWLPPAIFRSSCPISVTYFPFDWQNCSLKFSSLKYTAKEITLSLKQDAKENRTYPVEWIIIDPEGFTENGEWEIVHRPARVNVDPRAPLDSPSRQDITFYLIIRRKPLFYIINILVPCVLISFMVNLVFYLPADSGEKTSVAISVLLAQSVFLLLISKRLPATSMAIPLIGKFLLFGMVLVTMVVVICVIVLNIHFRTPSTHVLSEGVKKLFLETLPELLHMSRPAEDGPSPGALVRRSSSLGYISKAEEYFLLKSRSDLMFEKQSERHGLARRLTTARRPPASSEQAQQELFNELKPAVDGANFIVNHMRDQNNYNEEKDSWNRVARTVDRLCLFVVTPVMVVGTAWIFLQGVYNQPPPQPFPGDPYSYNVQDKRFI
Neuronal acetylcholine receptor subunit alpha-7 (Mus musculus, UniProt P49582), sequence (P49582 whole entry): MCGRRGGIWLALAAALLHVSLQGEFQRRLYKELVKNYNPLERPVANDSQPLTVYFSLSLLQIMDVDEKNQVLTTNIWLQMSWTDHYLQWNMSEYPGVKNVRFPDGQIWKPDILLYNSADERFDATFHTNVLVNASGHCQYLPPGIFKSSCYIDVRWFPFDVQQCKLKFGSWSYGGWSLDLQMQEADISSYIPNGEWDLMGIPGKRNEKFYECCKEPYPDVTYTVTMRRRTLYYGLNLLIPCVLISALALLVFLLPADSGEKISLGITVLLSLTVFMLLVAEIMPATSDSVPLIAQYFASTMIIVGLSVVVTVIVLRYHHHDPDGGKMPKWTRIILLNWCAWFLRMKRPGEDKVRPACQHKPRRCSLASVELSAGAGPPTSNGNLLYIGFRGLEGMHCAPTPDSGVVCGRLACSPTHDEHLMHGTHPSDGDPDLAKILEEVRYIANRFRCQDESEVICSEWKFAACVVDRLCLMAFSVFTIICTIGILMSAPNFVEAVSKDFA
Neuronal acetylcholine receptor subunit alpha-7 (Mus musculus), sequence (P49582 whole entry): as above
Neuronal acetylcholine receptor; alpha4/beta2, sequence (P17787 whole entry): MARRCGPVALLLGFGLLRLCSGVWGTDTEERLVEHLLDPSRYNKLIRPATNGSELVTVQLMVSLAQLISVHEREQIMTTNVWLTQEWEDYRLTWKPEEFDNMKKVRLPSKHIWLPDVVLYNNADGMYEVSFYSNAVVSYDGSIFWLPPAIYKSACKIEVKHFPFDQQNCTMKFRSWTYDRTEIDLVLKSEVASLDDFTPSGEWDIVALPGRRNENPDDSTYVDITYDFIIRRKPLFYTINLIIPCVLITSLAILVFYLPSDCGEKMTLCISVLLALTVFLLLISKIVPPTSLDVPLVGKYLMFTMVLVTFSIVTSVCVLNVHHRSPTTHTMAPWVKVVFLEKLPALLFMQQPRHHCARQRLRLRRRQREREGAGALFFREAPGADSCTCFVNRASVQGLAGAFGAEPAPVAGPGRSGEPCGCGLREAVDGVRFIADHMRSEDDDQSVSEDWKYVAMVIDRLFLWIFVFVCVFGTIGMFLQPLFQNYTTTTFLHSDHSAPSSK
Neuronal acetylcholine receptor; alpha4/beta2, sequence (P43681 whole entry): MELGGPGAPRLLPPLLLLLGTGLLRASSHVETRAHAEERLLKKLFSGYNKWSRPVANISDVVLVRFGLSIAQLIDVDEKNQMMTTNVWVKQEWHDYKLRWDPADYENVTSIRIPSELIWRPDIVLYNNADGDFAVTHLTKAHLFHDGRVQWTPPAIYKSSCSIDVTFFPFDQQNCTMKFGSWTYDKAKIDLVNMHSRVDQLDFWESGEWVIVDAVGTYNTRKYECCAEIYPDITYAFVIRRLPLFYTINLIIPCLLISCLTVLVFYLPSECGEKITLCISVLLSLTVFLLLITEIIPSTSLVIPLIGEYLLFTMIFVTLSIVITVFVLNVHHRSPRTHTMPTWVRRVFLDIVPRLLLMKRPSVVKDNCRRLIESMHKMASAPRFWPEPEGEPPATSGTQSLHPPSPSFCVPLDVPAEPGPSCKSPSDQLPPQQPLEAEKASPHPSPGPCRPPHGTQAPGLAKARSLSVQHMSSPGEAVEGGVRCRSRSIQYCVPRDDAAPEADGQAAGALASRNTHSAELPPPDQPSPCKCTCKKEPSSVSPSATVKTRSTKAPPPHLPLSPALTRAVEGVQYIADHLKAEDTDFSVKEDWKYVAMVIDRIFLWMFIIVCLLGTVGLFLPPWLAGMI
Neuronal acetylcholine receptor subunit alpha-7 (Homo sapiens, UniProt P36544), sequence (P36544 whole entry): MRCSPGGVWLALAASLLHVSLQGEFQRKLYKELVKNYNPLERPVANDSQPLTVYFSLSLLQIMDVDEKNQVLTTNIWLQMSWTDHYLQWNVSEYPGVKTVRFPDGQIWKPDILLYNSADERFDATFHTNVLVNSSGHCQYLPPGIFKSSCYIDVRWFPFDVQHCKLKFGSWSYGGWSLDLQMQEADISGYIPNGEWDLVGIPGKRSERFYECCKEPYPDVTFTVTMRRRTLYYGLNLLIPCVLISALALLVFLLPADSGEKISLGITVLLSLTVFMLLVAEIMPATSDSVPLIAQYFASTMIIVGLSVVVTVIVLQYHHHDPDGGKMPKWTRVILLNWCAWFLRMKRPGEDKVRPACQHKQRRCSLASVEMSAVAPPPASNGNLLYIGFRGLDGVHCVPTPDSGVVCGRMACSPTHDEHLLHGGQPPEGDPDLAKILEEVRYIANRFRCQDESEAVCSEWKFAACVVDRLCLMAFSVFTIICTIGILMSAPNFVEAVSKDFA

`CC(=O)OCC[N+](C)(C)C` showed an Efficacy in experiment [1] of 100%.

Regarding `C[N+]1(C)C2CCC1CC(OC(=O)c1c[nH]c3ccccc13)C2` (configuration not stated), the Ki (in general, a measure of affinity in units of concentration, obtained from inhibition or displacement) came to 3 µM in experiment [2], 0.0064 µM in experiment [3], 7.8 µM in experiment [5] and 0.0072 µM in experiment [6]. Also, the Efficacy in experiment [1] was 13%. For the same compound, it took 0.28 µM to reach a half-maximal effect in experiment [4] (EC50).

`CN1CCC[C@H]1c1cccnc1` [NICOTINE] returned an Efficacy in experiment [1] of 53%. Further, the Ki worked out at 0.48 µM in experiment [3], 5.5 µM in experiment [7] and 71 µM in experiment [6].

Take `Cc1nccn1CC1CCc2c(c3ccccc3n2C)C1=O` (configuration not stated) [ONDANSETRON]: the values for the Ki in experiment [3] and in experiment [5] were above 3 µM and 46 µM, respectively.

Take `CN1C2CCCC1CC(NC(=O)c1nn(C)c3ccccc13)C2` (configuration not stated) [GRANISETRON]: the Ki in experiment [3] is above 10 µM; in experiment [5] it was 38 µM.

With `O=C(OC1CN2CCC1CC2)n1ccc2ccccc21` (configuration not stated), the Efficacy in experiment [1] was determined as 17%. Further, the results for the Ki in experiment [3], in experiment [5] and in experiment [6] were 0.0088 µM, 14 µM and 0.01 µM, respectively. In addition, the response in experiment [4] was half-maximal at 4.8 µM (EC50).

In the case of `CN1[C@@H]2CC[C@H]1C[C@@H](OC(=O)c1c[nH]c3ccccc13)C2` [TROPISETRON], the figures for the Ki in experiment [2] and in experiment [5] were 27 µM and 55 µM, respectively.
